Data reported in the supplement of paper PMC10307832.

What was measured:
Test in all cases: relative viability (nuclei count vs DMSO), 5 days (fraction); higher = more cells survive
[1] = compound: Nc1ccccc1NC(=O)c1ccc(CNC(=O)OCc2cccnc2)cc1 [Entinostat] + Cc1cc(Nc2cc(N3CCN(C)CC3)nc(Sc3ccc(NC(=O)C4CC4)cc3)n2)n[nH]1 [Tozasertib] (partner 0.1 µM)
Method in brief: (§1)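 Lung cancer cell lines, seeded in 1536-well plates, were treated the following day by pin tool with a single drug or with five library-drug doses (not always all listed) in √10 steps on top of a fixed anchor-drug dose. Cells were fixed and nuclei stained in one step after 5 days, and nuclei were counted. Relative viability is the nuclei count for treated wells divided by that for vehicle wells, reported as medians of duplicate plates.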

[2] = compound: C1COCCN1C2=NC(=NC3=C2OC4=C3C=CC=N4)C5=CC(=CC=C5)NC(=O)C6=CN=C(C=C6)N + COc1cc2c(Oc3ccc(NC(=O)C4(C(=O)Nc5ccc(F)cc5)CC4)cc3F)ccnc2cc1OCCCN1CCOCC1 [Foretinib] (partner 0.25 µM)
Method in brief: as §1

[3] = compound: Nc1ccccc1NC(=O)c1ccc(CNC(=O)OCc2cccnc2)cc1 [Entinostat] + Nc1ncn([C@H]2C[C@H](O)[C@@H](CO)O2)c(=O)n1 [Decitabine] (partner 2 µM)
Method in brief: as §1

[4] = compound: CN1CCC(CNc2ccc3ncc(-c4cccc(OC(F)(F)F)c4)n3n2)CC1 [SGI-1776] + Nc1nc2[nH]cc(CCc3ccc(C(=O)N[C@@H](CCC(=O)O)C(=O)O)cc3)c2c(=O)[nH]1 [Pemetrexed] (partner 0.2 µM)
Method in brief: as §1

Cell Line	relative viability ([1]; first compound 0.02 µM)	relative viability ([1]; first compound 0.06325 µM)	relative viability ([1]; first compound 0.2 µM)	relative viability ([1]; first compound 0.6325 µM)	relative viability ([1]; first compound 2 µM)	relative viability ([2]; first compound 0.02 µM)	relative viability ([2]; first compound 0.06325 µM)	relative viability ([2]; first compound 0.2 µM)	relative viability ([2]; first compound 0.6325 µM)	relative viability ([2]; first compound 2 µM)	relative viability ([3]; first compound 0.02 µM)	relative viability ([3]; first compound 0.06325 µM)	relative viability ([3]; first compound 0.2 µM)	relative viability ([3]; first compound 0.6325 µM)	relative viability ([3]; first compound 2 µM)	relative viability ([4]; first compound 0.08 µM)	relative viability ([4]; first compound 0.8 µM)	relative viability ([4]; first compound 2.53 µM)	relative viability ([4]; first compound 8 µM)
NCI-H1650	0.336	0.366	0.332	0.223	0.204	1.12	1.15	0.974	1.22	0.76	0.381	0.394	0.43	0.258	0.273	0.348	0.367	0.36	0.296
NCI-H1355	0.525	0.484	0.412	0.303	0.275	0.995	1.12	1.1	0.927	0.642	0.356	0.335	0.3	0.315	0.266	1.09	1.07	1.01	1.03
NCI-H1793	0.309	0.308	0.284	0.205	0.175	0.564	0.843	0.59	0.548	0.391	0.519	0.56	0.383	0.256	0.253	0.947	1.17	0.835	0.689
NCI-H1734	0.25	0.296	0.267	0.215	0.22	0.825	0.948	0.695	0.804	0.563	0.555	0.483	0.464	0.451	0.298	0.412	0.371	0.399	0.377
LXF-289	0.203	0.172	0.204	0.17	0.145	0.994	1	0.985	0.952	0.747	0.422	0.381	0.446	0.358	0.31	0.875	1	0.808	0.9
PC-3 [JPC-3]	0.898	0.786	0.685	0.59	0.326	1.14	1.05	0.991	1.07	0.772	0.778	0.852	0.731	0.573	0.55	1.17	1.42	0.936	0.495
NCI-H2087	0.222	0.219	0.177	0.116	0.0873	1.03	1.28	1.05	0.962	0.741	0.283	0.302	0.186	0.133	0.106	0.672	0.607	0.68	0.651
NCI-H2170	0.685	0.677	0.461	0.391	0.172	0.953	0.843	1.05	1.07	0.68	0.465	0.468	0.376	0.281	0.236	0.225	0.287	0.254	0.295
HCC-78	0.577	0.432	0.248	0.241	0.173	0.466	0.553	0.587	0.531	0.425	0.823	0.726	0.595	0.594	0.371	0.894	0.875	0.908	0.939
NCI-H1395	0.668	0.721	0.696	0.496	0.47	0.919	0.909	0.924	0.984	0.894	0.693	0.726	0.626	0.556	0.492	0.876	0.836	0.784	0.605
H3255	0.48	0.468	0.503	0.315	0.204	0.985	0.97	0.865	0.754	0.718	0.58	0.556	0.493	0.268	0.218	0.602	0.609	0.649	0.471
HCC-15	0.306	0.346	0.258	0.0932	0.0635	1.05	1.15	1.06	0.947	0.677	0.622	0.508	0.46	0.261	0.151	0.229	0.226	0.223	0.197
NCI-H2023	0.218	0.221	0.138	0.0768	0.0712	0.889	1.07	0.765	0.759	0.511	0.199	0.14	0.157	0.0887	0.0748	0.282	0.222	0.244	0.174
ChaGo-K-1	0.256	0.227	0.211	0.197	0.19	0.971	1.04	0.955	0.832	0.582	0.572	0.545	0.543	0.443	0.45	0.269	0.267	0.287	0.242
COR-L23	0.159	0.19	0.198	0.0831	0.0903	0.97	1.02	0.99	1.1	0.692	0.402	0.413	0.356	0.217	0.141	0.212	0.188	0.2	0.18
EMC-BAC-2	0.302	0.254	0.228	0.17	0.229	0.991	1.07	1.01	0.902	0.766	0.988	0.916	0.815	0.486	0.364	0.438	0.452	0.458	0.425
LCLC-97TM1	0.218	0.213	0.192	0.177	0.167	0.974	0.964	0.931	1.04	0.825	0.23	0.213	0.314	0.163	0.16	0.182	0.2	0.143	0.182
LK-2	0.151	0.176	0.168	0.159	0.168	1.34	1.37	1.35	0.797	0.598	0.311	0.335	0.262	0.165	0.115	0.295	0.352	0.291	0.201
NCI-H3122	0.334	0.36	0.479	0.275	0.102	0.991	0.923	0.883	1.14	0.807	0.439	0.47	0.477	0.339	0.243	0.202	0.201	0.198	0.193
NCI-H2126	0.812	0.758	0.614	0.38	0.262	1.19	1.24	1.1	0.977	1.04	0.557	0.53	0.57	0.418	0.346	0.736	0.693	0.693	0.624
NCI-H520	0.47	0.441	0.38	0.331	0.325	0.839	0.742	0.669	0.798	0.469	0.571	0.464	0.482	0.385	0.35	0.784	0.692	0.553	0.348
LU99A	0.281	0.294	0.292	0.239	0.228	0.824	0.821	0.75	0.582	0.497	0.953	0.952	0.749	0.696	0.646	0.176	0.218	0.178	0.189
NCI-H1666	0.562	0.535	0.471	0.405	0.346	1	0.89	0.774	0.85	0.672	0.887	0.793	0.707	0.669	0.511	0.895	0.917	0.893	0.789
NCI-H460	0.395	0.0956	0.0498	0.0451	0.0275	1.11	1.23	1.12	1.08	0.545	0.438	0.372	0.203	0.0553	0.0422	0.0693	0.062	0.0616	0.0609
